Assays:
[1] = system: L6 cells (rat skeletal myoblasts); experiment: In vitro cytotoxicity with L6 cells, Alamar Blue assay; type: cell-based
Method: (§1) In vitro cytotoxicity with L6 cells (a […] cell line derived from rat skeletal myoblasts) were performed in 96-well microtiter plates with each well containing 100 μl of RPMI 1640 medium supplemented with 1% L-glutamine (200 mM) and 10% fetal bovine serum and 4000 L6 cells. Serial drug dilutions from 100 to 0.002 μg/mL were prepared and after 70 h of incubation the plates were microscopically inspected to ensure the validity of control wells and sterile conditions. Then, 10 μl of Alamar Blue was added to each well and the plates incubated for an additional 2 h. Plates were read with a Spectramax Gemini XS microplate fluorometer (Molecular Devices Cooperation, Sunnyvale, CA, USA) using an excitation wave length of 536 nm and an emission wave length of 588 nm.

[2] = In vitro cytotoxicity with L6 cells, Alamar Blue assay; type: cell-based, rat; details: L6 rat skeletal myoblasts, 70 h incubation
Method: as §1

[3] = system: Trypanosoma brucei rhodesiense STIB900 (bloodstream trypomastigotes); experiment: In vitro antitrypanosomal activity, Alamar Blue assay; type: cell-based; details: 70 h, STIB900 bloodstream forms, 70 h incubation, read-out: IC50 T. b. rhodesiense
Method: Assays were performed as described by Bernal et al.. In vitro antitrypanosomal activities of compounds were determined against Trypanosoma brucei rhodesiense STIB900 (bloodstream trypomastigotes) where the parasitic stock was isolated in 1982 from a human patient in Tanzania. […] Then, 10 μl of Alamar Blue (resazurin, 12.5 mg in 100 mL double-distilled water) was added to each well and incubation continued for a further 2–4 h. Plates were read with a Spectramax Gemini XS microplate fluorometer (Molecular Devices Cooperation, Sunnyvale, CA, USA) using an excitation wavelength of 536 nm and an emission wavelength of 588 nm.

[4] = L6 cells (rat skeletal myoblasts)

melting point [°C]	Molecule	other results
–	4-(2-Methoxyphenyl)-6-(pyridin-2-yl)pyrimidin-2-amine [Compound 23]	CC50 [1]: > 100 µM
–	4-(2-Methoxyphenyl)-6-(pyridin-4-yl)pyrimidin-2-amine [Compound 25]	CC50 [1]: > 70 µM
–	4-(2-Methoxyphenyl)-6-(pyridin-4-yl)pyrimidine [Compound 24]	CC50 [1]: > 100 µM
116 to 118	c1ccc(-c2cc(-c3cccnc3)ncn2)cc1 [Compound 1, 4-Phenyl-6-(pyridin-3-yl)pyrimidine]	–
206 to 207	c1cncc(-c2cc(-c3cccnc3)ncn2)c1 [Compound 2, 4,6-Bis(Pyridin-3-yl)pyrimidine]	–
102 to 104	COc1ccccc1-c1cc(-c2cccnc2)ncn1 [Compound 3, 4-(2-Methoxyphenyl)-6-(pyridin-3-yl)pyrimidine]	–
124 to 125	COc1cccc(-c2cc(-c3cccnc3)ncn2)c1 [Compound 5, 4-(3-Methoxyphenyl)-6-(pyridin-3-yl)pyrimidine]	–
162 to 163	Brc1cccc(-c2cc(-c3cccnc3)ncn2)c1 [Compound 6, 4-(3-Bromophenyl)-6-(pyridin-3-yl)pyrimidine]	–
193 to 195	Fc1cccc(-c2cc(-c3cccnc3)ncn2)c1 [Compound 7, 4-(3-Fluorophenyl)-6-(pyridin-3-yl)pyrimidine]	–
165 to 167	COc1ccc(-c2cc(-c3cccnc3)ncn2)cc1 [Compound 8, 4-(4-Methoxyphenyl)-6-(pyridin-3-yl)pyrimidine]	–
131 to 134	COc1ccc(-c2cc(-c3cccnc3)ncn2)cc1OC [Compound 9, 4-(3,4-Dimethoxyphenyl)-6-(pyridin-3-yl)pyrimidine]	–
173 to 175	c1cncc(-c2cc(-c3ccc4c(c3)OCO4)ncn2)c1 [Compound 10, 4-(2H-1,3-benzodioxol-5-yl)-6-(pyridin-3-yl)pyrimidine]	CC50 at 70 h [2, 4]: > 100 µM; IC50 [3]: 6.7 µM
172 to 175	Nc1nc(-c2ccccc2)cc(-c2cccnc2)n1 [Compound 11, 4-Phenyl-6-(pyridin-3-yl)pyrimidin-2-amine]	–
229 to 230	Nc1nc(-c2cccnc2)cc(-c2cccnc2)n1 [Compound 12, 4,6-Bis(Pyridin-3-yl)pyrimidin-2-amine]	–
149 to 152	Nc1nc(-c2cccnc2)cc(-c2ccccc2Br)n1 [Compound 14, 4-(2-Bromophenyl)-6-(pyridin-3-yl)pyrimidin-2-amine]	–
162 to 164	COc1cccc(-c2cc(-c3cccnc3)nc(N)n2)c1 [Compound 15, 4-(3-Methoxyphenyl)-6-(pyridin-3-yl)pyrimidin-2-amine]	–
169 to 171	Nc1nc(-c2cccnc2)cc(-c2cccc(Br)c2)n1 [Compound 16, 4-(3-Bromophenyl)-6-(pyridin-3-yl)pyrimidin-2-amine]	–
196 to 198	Nc1nc(-c2cccnc2)cc(-c2cccc(F)c2)n1 [Compound 17, 4-(3-Fluorophenyl)-6-(pyridin-3-yl)pyrimidin-2-amine]	–
163 to 165	COc1ccc(-c2cc(-c3cccnc3)nc(N)n2)cc1 [Compound 18, 4-(4-Methoxyphenyl)-6-(pyridin-3-yl)pyrimidin-2-amine]	–
210 to 211	Nc1nc(-c2ccc(Br)cc2)cc(-c2cccnc2)n1 [Compound 19, 4-(4-Bromophenyl)-6-(pyridin-3-yl)pyrimidin-2-amine]	–
165 to 167	COc1ccc(-c2cc(-c3cccnc3)nc(N)n2)cc1OC [Compound 20, 4-(3,4-Dimethoxyphenyl)-6-(pyridin-3-yl)pyrimidin-2-amine]	–
236 to 238	Nc1nc(-c2cccnc2)cc(-c2ccc3c(c2)OCO3)n1 [Compound 21, 4-(2H-1,3-benzodioxol-5-yl)-6-(pyridin-3-yl)pyrimidin-2-amine]	CC50 at 70 h [2, 4]: > 100 µM; IC50 [3]: 12.9 µM
–	COc1cc([C@@H]2c3cc4c(cc3[C@H](O)[C@H]3COC(=O)[C@H]23)OCO4)cc(OC)c1OC [Podophyllotoxin, reference compound]	CC50 at 70 h [2]: 0.019 µM
